Laboratory results reported in ChEMBL document CHEMBL3797052 (Eur J Med Chem, 2016).
Calls of active or inactive are those of the source. No cut-off for these calls is given here.

How the values were obtained:
[1] = Antiproliferative activity against human UACC62 cells assessed as cell growth at 10^-6 M after 48 hrs by sulforhodamine B assay; assay type: functional; conditions: UACC-62, 48 h, read-out: Activity
[2] = Antiproliferative activity against human SF268 cells assessed as growth inhibition after 48 hrs by sulforhodamine B assay; assay type: functional; conditions: SF-268, 48 h
ACHN = experiment: Antiproliferative activity against human ACHN cells assessed as cell growth at 10^-8 M after 48 hrs by sulforhodamine B assay; assay type: functional; conditions: read-out: Activity
A549 = experiment: Antiproliferative activity against human A549/ATCC cells assessed as growth inhibition after 48 hrs by sulforhodamine B assay; assay type: functional; conditions: A549, 48 h; for CC50: read-out: LC50 (the source's name)
[3] = Antiproliferative activity against human HOP62 cells assessed as cell growth at 10^-4 M after 48 hrs by sulforhodamine B assay; assay type: functional; conditions: HOP-62, 48 h, read-out: Activity
CYP2C9 = CYP2C9 (Homo sapiens, UniProt P11712); experiment: Inhibition of recombinant human CYP2C9 assessed as remaining enzyme activity using CYP2C9 green as substrate at 10 uM after 5 mins in presence of NADP by fluorescence plate reader analysis; assay type: ADME; conditions: recombinant human CYP2C9, probe CYP2C9 green, read-out: Activity
CYP2C9, sequence (P11712 whole entry): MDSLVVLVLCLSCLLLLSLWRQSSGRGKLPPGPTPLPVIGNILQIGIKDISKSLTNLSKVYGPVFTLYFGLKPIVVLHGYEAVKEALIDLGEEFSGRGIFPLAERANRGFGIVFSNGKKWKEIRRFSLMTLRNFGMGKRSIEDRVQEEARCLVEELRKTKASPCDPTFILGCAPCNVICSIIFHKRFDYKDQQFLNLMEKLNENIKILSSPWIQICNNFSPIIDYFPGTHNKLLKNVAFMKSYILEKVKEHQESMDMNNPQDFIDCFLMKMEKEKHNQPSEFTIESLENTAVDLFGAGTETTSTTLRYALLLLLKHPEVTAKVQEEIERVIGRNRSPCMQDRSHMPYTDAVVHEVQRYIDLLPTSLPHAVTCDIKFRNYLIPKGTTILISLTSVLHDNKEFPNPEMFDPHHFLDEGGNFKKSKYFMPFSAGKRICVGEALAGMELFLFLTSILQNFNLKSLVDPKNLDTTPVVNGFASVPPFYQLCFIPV

[4] = Antiproliferative activity against human HL-60(TB) cells assessed as cell growth at 10^-7 M after 48 hrs by sulforhodamine B assay; assay type: functional; conditions: HL-60, 48 h, read-out: Activity
NCI-H460 [5] = experiment: Antiproliferative activity against human NCI-H460 cells assessed as cell growth at 10^-6 M after 48 hrs by sulforhodamine B assay; assay type: functional; conditions: NCI-H460, 48 h, read-out: Activity
[6] = Antiproliferative activity against human OVCAR3 cells assessed as cell growth at 10^-8 M after 48 hrs by sulforhodamine B assay; assay type: functional; conditions: OVCAR-3, 48 h, read-out: Activity
[7] = Antiproliferative activity against human OVCAR5 cells assessed as cell growth at 10^-4 M after 48 hrs by sulforhodamine B assay; assay type: functional; conditions: OVCAR-5, 48 h, read-out: Activity
NCI-H460 [8] = experiment: Antiproliferative activity against human NCI-H460 cells assessed as growth inhibition after 48 hrs by sulforhodamine B assay; assay type: functional; conditions: NCI-H460, 48 h
CCRF-CEM = experiment: Antiproliferative activity against human CCRF-CEM cells assessed as cell growth at 10^-7 M after 48 hrs by sulforhodamine B assay; assay type: functional; conditions: read-out: Activity
[9] = Antiproliferative activity against human RXF393 cells assessed as cell growth at 10^-7 M after 48 hrs by sulforhodamine B assay; assay type: functional; conditions: RXF 393, 48 h, read-out: Activity
[10] = Antiproliferative activity against human COLO205 cells assessed as cell growth at 10^-6 M after 48 hrs by sulforhodamine B assay; assay type: functional; conditions: COLO 205, 48 h, read-out: Activity
MDA-MB-231 = experiment: Antiproliferative activity against human MDA-MB-231 cells assessed as cell growth at 10^-6 M after 48 hrs by sulforhodamine B assay; assay type: functional; conditions: MDA-MB-231, 48 h, read-out: Activity
[11] = Antiproliferative activity against human TK10 cells assessed as cell growth at 10^-7 M after 48 hrs by sulforhodamine B assay; assay type: functional; conditions: TK-10, 48 h, read-out: Activity
[12] = target: Aurora kinase A (Homo sapiens) (UniProt O14965); experiment: Inhibition of human Aurora-A at 10 uM measured after 40 mins by scintillation counting
[13] = target: Tyrosine-protein kinase ABL1 (Homo sapiens) (UniProt P00519); experiment: Inhibition of human ABL1 at 10 uM measured after 40 mins by scintillation counting
[14] = target: Activin receptor type-1-like (Homo sapiens) (UniProt P37023); experiment: Inhibition of human ALK1 at 10 uM measured after 40 mins by scintillation counting
Activin receptor type-1-like (Homo sapiens), sequence (P37023 whole entry): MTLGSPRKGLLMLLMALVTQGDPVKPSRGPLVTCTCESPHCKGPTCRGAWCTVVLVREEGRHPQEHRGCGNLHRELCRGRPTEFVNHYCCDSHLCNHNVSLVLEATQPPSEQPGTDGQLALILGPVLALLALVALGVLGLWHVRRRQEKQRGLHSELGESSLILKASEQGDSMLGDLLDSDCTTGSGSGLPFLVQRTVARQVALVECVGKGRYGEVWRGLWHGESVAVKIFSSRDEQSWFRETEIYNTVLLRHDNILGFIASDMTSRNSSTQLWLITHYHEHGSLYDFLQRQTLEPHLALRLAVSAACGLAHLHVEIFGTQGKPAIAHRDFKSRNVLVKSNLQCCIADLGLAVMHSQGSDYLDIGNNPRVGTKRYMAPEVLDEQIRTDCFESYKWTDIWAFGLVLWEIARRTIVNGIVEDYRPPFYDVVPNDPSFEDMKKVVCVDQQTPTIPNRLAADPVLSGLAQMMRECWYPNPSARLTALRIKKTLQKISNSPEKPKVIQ

[15] = system: Serine/threonine-protein kinase B-raf (Homo sapiens), P15056 [V600E]; experiment: Inhibition of BRAF V600E mutant assessed as reduction in MEK phosphorylation in human A375P cells after 24 hrs by Western blot analysis; assay type: cell-based
Serine/threonine-protein kinase B-raf (Homo sapiens), P15056 [V600E], sequence (P15056 whole entry V600E): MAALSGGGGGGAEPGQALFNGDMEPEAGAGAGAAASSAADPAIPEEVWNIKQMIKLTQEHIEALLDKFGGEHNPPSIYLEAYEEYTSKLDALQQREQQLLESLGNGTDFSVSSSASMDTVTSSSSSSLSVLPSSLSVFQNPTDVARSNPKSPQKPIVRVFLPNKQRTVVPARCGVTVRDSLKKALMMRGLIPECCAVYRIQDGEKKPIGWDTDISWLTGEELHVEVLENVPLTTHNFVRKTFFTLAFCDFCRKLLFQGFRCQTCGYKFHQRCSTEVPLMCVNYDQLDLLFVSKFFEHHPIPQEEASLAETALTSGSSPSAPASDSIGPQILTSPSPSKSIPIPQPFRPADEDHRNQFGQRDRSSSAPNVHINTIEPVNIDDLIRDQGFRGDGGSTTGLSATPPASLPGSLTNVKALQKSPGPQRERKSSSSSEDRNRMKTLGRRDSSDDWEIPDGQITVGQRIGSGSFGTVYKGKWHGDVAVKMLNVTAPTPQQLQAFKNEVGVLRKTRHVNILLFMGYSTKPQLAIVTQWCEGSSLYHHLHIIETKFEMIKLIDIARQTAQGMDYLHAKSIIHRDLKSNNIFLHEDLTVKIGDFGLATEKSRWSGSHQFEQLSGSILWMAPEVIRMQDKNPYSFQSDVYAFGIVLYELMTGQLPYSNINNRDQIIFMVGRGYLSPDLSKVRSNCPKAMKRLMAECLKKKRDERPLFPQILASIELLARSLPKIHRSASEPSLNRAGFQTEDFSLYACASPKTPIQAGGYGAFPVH

[16] = target: Fibroblast growth factor receptor 3 (Homo sapiens) (UniProt P22607); experiment: Inhibition of human FGFR3 at 10 uM measured after 40 mins by scintillation counting
[17] = target: Hepatocyte growth factor receptor (Homo sapiens) (UniProt P08581); experiment: Inhibition of human C-Met at 10 uM measured after 40 mins by scintillation counting
Hepatocyte growth factor receptor (Homo sapiens), sequence (P08581 whole entry): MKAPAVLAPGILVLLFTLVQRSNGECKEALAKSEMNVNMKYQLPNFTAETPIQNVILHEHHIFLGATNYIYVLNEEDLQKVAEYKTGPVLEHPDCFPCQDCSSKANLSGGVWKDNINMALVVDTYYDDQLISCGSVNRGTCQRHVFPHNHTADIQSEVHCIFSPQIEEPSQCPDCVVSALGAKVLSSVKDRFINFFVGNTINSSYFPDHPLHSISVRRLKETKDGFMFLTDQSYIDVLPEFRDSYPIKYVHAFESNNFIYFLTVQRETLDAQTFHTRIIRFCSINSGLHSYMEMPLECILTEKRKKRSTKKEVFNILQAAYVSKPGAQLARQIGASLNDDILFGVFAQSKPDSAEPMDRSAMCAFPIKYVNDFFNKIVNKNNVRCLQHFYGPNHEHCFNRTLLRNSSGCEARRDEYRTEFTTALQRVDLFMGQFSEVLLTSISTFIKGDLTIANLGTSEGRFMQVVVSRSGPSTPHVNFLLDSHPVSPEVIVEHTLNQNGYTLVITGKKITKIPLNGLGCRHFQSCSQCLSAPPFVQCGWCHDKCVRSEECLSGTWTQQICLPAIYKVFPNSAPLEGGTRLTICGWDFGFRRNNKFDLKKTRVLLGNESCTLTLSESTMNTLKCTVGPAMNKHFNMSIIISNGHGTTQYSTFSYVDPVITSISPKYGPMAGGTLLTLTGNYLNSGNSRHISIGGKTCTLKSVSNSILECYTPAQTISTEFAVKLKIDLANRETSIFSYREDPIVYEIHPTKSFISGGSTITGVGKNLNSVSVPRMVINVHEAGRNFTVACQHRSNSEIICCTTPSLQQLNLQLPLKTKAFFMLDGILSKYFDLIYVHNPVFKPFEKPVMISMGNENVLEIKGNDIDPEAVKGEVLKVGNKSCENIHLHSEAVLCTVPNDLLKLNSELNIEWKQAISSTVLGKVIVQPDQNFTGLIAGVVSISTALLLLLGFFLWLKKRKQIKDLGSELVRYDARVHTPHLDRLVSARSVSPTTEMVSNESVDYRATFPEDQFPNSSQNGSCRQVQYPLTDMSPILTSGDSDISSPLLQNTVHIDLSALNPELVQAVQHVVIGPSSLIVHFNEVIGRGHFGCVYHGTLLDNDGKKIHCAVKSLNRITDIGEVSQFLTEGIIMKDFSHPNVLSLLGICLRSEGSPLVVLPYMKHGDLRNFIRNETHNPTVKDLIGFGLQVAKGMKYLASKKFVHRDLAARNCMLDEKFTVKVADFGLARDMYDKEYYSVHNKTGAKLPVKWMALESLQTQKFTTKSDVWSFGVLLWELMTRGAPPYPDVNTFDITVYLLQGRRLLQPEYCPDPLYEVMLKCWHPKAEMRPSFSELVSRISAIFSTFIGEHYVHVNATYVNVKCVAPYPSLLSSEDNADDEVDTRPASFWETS

[18] = target: Serine/threonine-protein kinase B-raf (Homo sapiens) (UniProt P15056); experiment: Inhibition of human BRAF at 10 uM measured after 40 mins by scintillation counting
Serine/threonine-protein kinase B-raf (Homo sapiens), sequence (P15056 whole entry): as the sequence (P15056 whole entry V600E) above, with E600V counted along it

[19] = system: Serine/threonine-protein kinase B-raf (Homo sapiens), P15056 [V600E]; experiment: Inhibition of BRAF V600E mutant assessed as reduction in ERK phosphorylation in human A375P cells after 24 hrs by Western blot analysis; assay type: cell-based
[20] = target: Proto-oncogene tyrosine-protein kinase Src (Homo sapiens) (UniProt P12931); experiment: Inhibition of human C-Src at 10 uM measured after 40 mins by scintillation counting
Proto-oncogene tyrosine-protein kinase Src (Homo sapiens), sequence (P12931 2-536 limits assumed): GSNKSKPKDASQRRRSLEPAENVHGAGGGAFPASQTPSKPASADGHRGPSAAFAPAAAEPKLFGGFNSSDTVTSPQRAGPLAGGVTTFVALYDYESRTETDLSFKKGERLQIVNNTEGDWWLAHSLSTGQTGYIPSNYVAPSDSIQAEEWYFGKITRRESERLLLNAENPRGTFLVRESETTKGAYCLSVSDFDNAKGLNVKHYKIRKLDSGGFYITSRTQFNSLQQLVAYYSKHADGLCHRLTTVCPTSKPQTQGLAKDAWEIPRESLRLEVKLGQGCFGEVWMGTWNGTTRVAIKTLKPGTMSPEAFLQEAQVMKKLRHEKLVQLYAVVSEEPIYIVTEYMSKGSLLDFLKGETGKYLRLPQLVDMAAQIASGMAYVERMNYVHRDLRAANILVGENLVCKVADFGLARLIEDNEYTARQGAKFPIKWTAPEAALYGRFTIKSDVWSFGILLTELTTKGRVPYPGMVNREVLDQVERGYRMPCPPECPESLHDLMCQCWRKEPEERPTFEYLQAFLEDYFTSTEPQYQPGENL

[21] = target: Epidermal growth factor receptor (Homo sapiens) (UniProt P00533); experiment: Inhibition of human EGFR at 10 uM measured after 40 mins by scintillation counting
Epidermal growth factor receptor (Homo sapiens), sequence (P00533 whole entry): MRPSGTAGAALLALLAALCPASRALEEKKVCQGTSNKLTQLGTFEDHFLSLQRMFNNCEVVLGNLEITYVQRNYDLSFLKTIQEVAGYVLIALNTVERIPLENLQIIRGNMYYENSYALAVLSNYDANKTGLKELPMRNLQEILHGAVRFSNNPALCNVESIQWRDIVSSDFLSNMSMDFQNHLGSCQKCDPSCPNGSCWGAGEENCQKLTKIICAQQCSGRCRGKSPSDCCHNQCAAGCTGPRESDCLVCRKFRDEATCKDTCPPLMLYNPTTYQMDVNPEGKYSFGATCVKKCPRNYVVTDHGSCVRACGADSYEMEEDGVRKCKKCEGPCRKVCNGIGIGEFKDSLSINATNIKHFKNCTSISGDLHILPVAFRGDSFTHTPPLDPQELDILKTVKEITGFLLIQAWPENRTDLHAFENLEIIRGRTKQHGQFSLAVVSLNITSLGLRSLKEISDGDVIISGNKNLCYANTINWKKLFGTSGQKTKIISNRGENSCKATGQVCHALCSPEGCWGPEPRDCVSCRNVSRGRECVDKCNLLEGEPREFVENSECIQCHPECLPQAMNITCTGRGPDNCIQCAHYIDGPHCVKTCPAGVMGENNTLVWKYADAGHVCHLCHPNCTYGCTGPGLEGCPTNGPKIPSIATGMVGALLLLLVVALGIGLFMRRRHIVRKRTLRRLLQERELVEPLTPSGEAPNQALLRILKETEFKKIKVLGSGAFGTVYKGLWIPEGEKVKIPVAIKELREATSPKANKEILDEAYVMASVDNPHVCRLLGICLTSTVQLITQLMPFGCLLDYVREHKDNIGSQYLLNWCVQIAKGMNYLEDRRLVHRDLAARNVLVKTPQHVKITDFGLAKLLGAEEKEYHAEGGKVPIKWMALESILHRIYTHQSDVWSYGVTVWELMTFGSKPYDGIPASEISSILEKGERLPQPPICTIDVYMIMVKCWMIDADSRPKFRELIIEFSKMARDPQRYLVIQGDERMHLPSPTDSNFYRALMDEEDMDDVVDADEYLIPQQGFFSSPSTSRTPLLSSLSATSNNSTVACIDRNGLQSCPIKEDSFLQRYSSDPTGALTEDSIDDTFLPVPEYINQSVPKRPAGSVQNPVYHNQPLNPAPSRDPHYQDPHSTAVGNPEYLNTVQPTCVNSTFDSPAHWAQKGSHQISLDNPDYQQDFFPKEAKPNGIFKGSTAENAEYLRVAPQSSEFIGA

| SMILES | growth at 1 µM [1] | GI50 [2] | LC50 (concentration killing 50% of cells) [2] | TGI [2] | growth at 0.01 µM (ACHN) | GI50 (A549) | CC50 (A549) | growth at 100 µM [3] | activity at 5 min, 10 µM (CYP2C9) | growth at 0.1 µM [4] | growth at 1 µM (NCI-H460 [5]) | growth at 0.01 µM [6] | GI50 (NCI-H460 [8]) | growth at 0.1 µM (CCRF-CEM) | growth at 0.1 µM [9] | growth at 1 µM [10] | growth at 1 µM (MDA-MB-231) | growth at 0.1 µM [11] | TGI (A549) | TGI (NCI-H460 [8]) | also measured |
| --- | --- | --- | --- | --- | --- | --- | --- | --- | --- | --- | --- | --- | --- | --- | --- | --- | --- | --- | --- | --- | --- |
| CNC(=O)c1cc(Oc2ccc3nc(NC(=O)Nc4ccc(Cl)c(C(F)(F)F)c4)sc3c2)ccn1 | 83% | 2.34 µM | > 100 µM | 16.4 µM | 97% | 1.93 µM | > 100 µM | -34% | 98.5% | 110% | 86% | 109% | 1.79 µM | 99% | 90% | 86% | 66% | 105% |  |  | growth at 100 µM [7]: -24% |
| CNC(=O)c1cc(Oc2ccc(NC(=O)Nc3ccc(Cl)c(C(F)(F)F)c3)cc2)ccn1 [SORAFENIB] |  | 2.51 µM |  | 10 µM |  | 3.16 µM | 63.1 µM |  |  |  |  |  | 2.51 µM |  |  |  |  |  | 12.6 µM | 10 µM |  |
| CNC(=O)c1cc(Oc2ccc3nc(NC(=O)Nc4cc(C(F)(F)F)cc(C(F)(F)F)c4)sc3c2)ccn1 | 37% | 1.27 µM | 6.44 µM | 2.86 µM | 94% | 1.3 µM | 5.51 µM | -76% | 88.2% | 31% | 62% | 101% | 1.23 µM | 114% | 91% | 46% | 46% | 109% | 2.67 µM | 2.85 µM | inhibition [12]: < 40%; inhibition [13]: < 40%; inhibition [14]: < 40%; inhibition [15]: Dose-dependent effect; inhibition [16]: < 40%; growth at 100 µM [7]: -74%; inhibition [17]: < 40%; inhibition [18]: < 40%; LC50 (concentration killing 50% of cells) (NCI-H460 [8]): 6.6 µM; inhibition [19]: Active; inhibition [20]: < 40%; inhibition [21]: < 40% |
| CNC(=O)c1cc(Oc2ccc3nc(NC(=O)c4cc(C(F)(F)F)cc(C(F)(F)F)c4)sc3c2)ccn1 | 84% | 2.66 µM | > 100 µM | 17 µM | 104% | 3.99 µM | 61.2 µM | -71% | 32.7% | 97% | 101% | 104% | 3.83 µM | 108% | 94% | 99% | 114% | 94% | 14.6 µM | 14.6 µM | growth at 100 µM [7]: -48%; LC50 (concentration killing 50% of cells) (NCI-H460 [8]): 58.9 µM |
| CNC(=O)c1cc(Oc2ccc3nc(NC(=O)Nc4ccc(Cl)c(Cl)c4)sc3c2)ccn1 | 85% | 1.98 µM | 8.97 µM | 4.21 µM | 92% | 1.89 µM |  | -85% | 90% | 102% | 107% | 101% | 2.43 µM | 107% | 101% | 106% | 85% | 112% | 3.99 µM | 5.32 µM | LC50 (concentration killing 50% of cells) (NCI-H460 [8]): > 100 µM |
